The experiment concerns the target recombinant human AKR1C3 (Homo sapiens (Human), UniProt P42330). Kind of experiment: AKR1C3-inhibitory activity assay (Coumberone to Coumberol fluorescence). The class given is biochemical. The following applies: recombinant human AKR1C3, 15 min pre-incubation, 10 μM NADPH, 0.3 μM Coumberone. The procedure:
The AKR1C3-inhibitory activity of the substances of the present invention was measured in the AKR1C3 assay described in the paragraphs below.
Essentially, the enzyme activity is measured by quantification of the generation of Coumberol from Coumberone (Halim et al. J. AM. CHEM. SOC. 2008, 130:14123-14128 and Yee et al. Proc. Natl. Acad. Sci. USA 2006, 103:13304-13309). In this test, the increase of the highly fluorescent Coumberol by NADPH—(nicotinamide adenine dinucleotide phosphate)-dependent reduction of the non-fluorescent Coumberone by AKR1C3 was determined.
The enzyme used was recombinant human AKR1C3 (Aldo-keto reductase family 1 member C3; GenBank Accession No. NM_003739). This was expressed in E. coli as GST (glutathione S transferase) fusion protein and purified by glutathione Sepharose affinity chromatography. The GST was removed by digestion with thrombin and subsequent size exclusion chromatography (Dufort, I., Rheault, P., Huang, X F., Soucy, P., and Luu-The, V., Endocrinology 140, 568-574 (1999)).
For the assay, 50 nl of a 100-fold concentrated solution of the test substance in DMSO were pipetted into a black low-volume 384-well microtiter plate (Greiner Bio-One, Frickenhausen, Germany), 2.5 μl of a solution of AKR1C3 in assay buffer [50 mM potassium phosphate buffer pH 7, 1 mM DTT, 0.0022% (w/v) Pluronic F-127, 0.01% BSA (w/v) and protease inhibitor cocktail (Complete, EDTA-free Protease Inhibitor Cocktail from Roche)] were added and the mixture was incubated for 15 min to allow pre-binding of the substances to the enzyme prior to the enzyme reaction. The enzyme reaction was then started by addition of 2.5 μl of a solution of NADPH (20 μM→final concentration in 5 μl of assay volume is 10 μM) and Coumberone (0.6 μM→final concentration in 5 μl of assay volume is 0.3 μM) in assay buffer, and the resulting mixture was incubated at 22° C. for the reaction time of typically 90 min. The concentration of the AKR1C3 and the reaction time was adapted to the respective activity of the enzyme preparation and adjusted such that the assay was carried out in the linear range. Typical AKR1C3 concentrations were in the region of 1 nM. The reaction was stopped by addition of 2.5 μl of a stop solution consisting of 3 μM EM-1404 as inhibitor (U.S. Pat. No. 6,541,463) in 50 mM HEPES pH7.5 (3 μM EM-1404→final concentration in 7.5 μl of assay volume is 1 μM). The fluorescence of the Coumberole was then measured at 520 nm (excitation at 380 nm) using a suitable measuring instrument (Pherastar from BMG Labtechnologies). The intensity of the fluorescence was used as a measure of the amount of Coumberole formed and thus of the enzyme activity of AKR1C3. The data were normalized (enzyme reaction without inhibitor=0% inhibition; all other assay components, but no enzyme=100% inhibition).

Sequence of recombinant human AKR1C3 (P42330 whole entry): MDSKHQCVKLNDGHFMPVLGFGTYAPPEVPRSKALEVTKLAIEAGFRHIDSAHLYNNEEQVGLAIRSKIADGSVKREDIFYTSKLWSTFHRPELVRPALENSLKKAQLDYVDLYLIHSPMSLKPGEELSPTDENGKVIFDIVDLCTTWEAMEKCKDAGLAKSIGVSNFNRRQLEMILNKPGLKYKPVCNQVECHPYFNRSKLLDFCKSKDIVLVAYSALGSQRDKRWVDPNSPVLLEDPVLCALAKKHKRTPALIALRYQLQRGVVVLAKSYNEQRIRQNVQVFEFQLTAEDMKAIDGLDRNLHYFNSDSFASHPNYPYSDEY

Turning to `O=C(c1cnn[nH]1)N1CC2CCC(C1)N2S(=O)(=O)c1cccc(Br)c1` [Example 31, {8-[(3-bromophenyl)sulfonyl]-3,8-diazabicyclo[3.2.1]oct-3-yl}(1H-1,2,3-triazol-5-yl)methanone], the IC50 worked out at 0.5 nM.
Take `O=C(c1cnn[nH]1)N1CC2CCC(C1)N2S(=O)(=O)c1cccc(OC(F)(F)F)c1` [Example 33, 1H-1,2,3-triazol-5-yl[8-{[3-(trifluoromethoxy)phenyl]sulfonyl}-3,8-diazabicyclo[3.2.1]oct-3-yl]methanone]: the concentration for half-maximal inhibition (IC50) came out at 1.8 nM.
As for `O=C(c1cnn[nH]1)N1CC2CCC(C1)N2S(=O)(=O)c1cc(Cl)ccc1C(F)(F)F` [Example 34, [8-{[5-chloro-2-(trifluoromethyl)phenyl]sulfonyl}-3,8-diazabicyclo[3.2.1]oct-3-yl](1H-1,2,3-triazol-5-yl)methanone], the IC50 was found to be 1.9 nM.
Regarding `N#Cc1ccccc1S(=O)(=O)N1C2CCC1CN(C(=O)c1cnn[nH]1)C2` [Example 35, 2-{[3-(1H-1,2,3-triazol-5-ylcarbonyl)-3,8-diazabicyclo[3.2.1]oct-8-yl]sulfonyl}benzonitrile], the IC50 came out at 6 nM.
As for `O=C(c1cnn[nH]1)N1CC2CCC(C1)N2S(=O)(=O)c1ccc(C(F)(F)F)cc1` [Example 36, 1H-1,2,3-triazol-5-yl[8-{[4-(trifluoromethyl)phenyl]sulfonyl}-3,8-diazabicyclo[3.2.1]oct-3-yl]methanone], the figure is 3.3 nM.
For `O=C(c1cnn[nH]1)N1CC2CCC(C1)N2S(=O)(=O)c1ccc(O)cc1` [Example 37, {8-[(4-hydroxyphenyl)sulfonyl]-3,8-diazabicyclo[3.2.1]oct-3-yl}(1H-1,2,3-triazol-5-yl)methanone], the IC50 is 2.8 nM.
As for `O=C(c1cnn[nH]1)N1CC2CCC(C1)N2S(=O)(=O)c1ccc(Br)cc1` [Example 38, {8-[(4-bromophenyl)sulfonyl]-3,8-diazabicyclo[3.2.1]oct-3-yl}(1H-1,2,3-triazol-5-yl)methanone], the figure is 1.5 nM.
As to `O=C(c1cnn[nH]1)N1CC2CCC(C1)N2S(=O)(=O)c1cccc2ccccc12` [Example 39, [8-(naphthalen-1-ylsulfonyl)-3,8-diazabicyclo[3.2.1]oct-3-yl](1H-1,2,3-triazol-5-yl)methanone], the IC50 came out at 1.3 nM.
As for `O=C(c1cnn[nH]1)N1CC2CCC(C1)N2S(=O)(=O)c1cccc2cccnc12` [Example 40, [8-(quinolin-8-ylsulfonyl)-3,8-diazabicyclo[3.2.1]oct-3-yl](1H-1,2,3-triazol-5-yl)methanone], the figure is 3.4 nM; as for `O=C(c1cnn[nH]1)N1CC2CCC(C1)N2S(=O)(=O)c1ccc(OC(F)(F)F)cc1` [Example 41, 1H-1,2,3-triazol-5-yl[8-{[4-(trifluoromethoxy)phenyl]sulfonyl}-3,8-diazabicyclo[3.2.1]oct-3-yl]methanone], 6.5 nM; as for `O=C(c1cnn[nH]1)N1CC2CCC(C1)N2S(=O)(=O)c1ccccc1OC(F)(F)F` [Example 42, 1H-1,2,3-triazol-5-yl[8-{[2-(trifluoromethoxy)phenyl]sulfonyl}-3,8-diazabicyclo[3.2.1]oct-3-yl]methanone], 1.1 nM.
The figure for `O=C(c1cnn[nH]1)N1CC2CCC(C1)N2S(=O)(=O)c1ccc([N+](=O)[O-])cc1` [Example 43, {8-[(4-nitrophenyl)sulfonyl]-3,8-diazabicyclo[3.2.1]oct-3-yl}(1H-1,2,3-triazol-5-yl)methanone] is 9.1 nM; for `O=C(c1cnn[nH]1)N1CC2CCC(C1)N2S(=O)(=O)c1cccc([N+](=O)[O-])c1` [Example 44, {8-[(3-nitrophenyl)sulfonyl]-3,8-diazabicyclo[3.2.1]oct-3-yl}(1H-1,2,3-triazol-5-yl)methanone] it is 1.9 nM; for `Cc1cc(C)c(S(=O)(=O)N2C3CCC2CN(C(=O)c2cnn[nH]2)C3)c(C)c1` [Example 45, 1H-1,2,3-triazol-5-yl{8-[(2,4,6-trimethylphenyl)sulfonyl]-3,8-diazabicyclo[3.2.1]oct-3-yl}methanone] it is 1.4 nM.
As for `O=C(c1cnn[nH]1)N1CC2CCC(C1)N2S(=O)(=O)c1ccccc1[N+](=O)[O-]` [Example 46, {8-[(2-nitrophenyl)sulfonyl]-3,8-diazabicyclo[3.2.1]oct-3-yl}(1H-1,2,3-triazol-5-yl)methanone], the figure is 0.9 nM; as for `COc1ccc(OC)c(S(=O)(=O)N2C3CCC2CN(C(=O)c2cnn[nH]2)C3)c1` [Example 47, {8-[(2,5-dimethoxyphenyl)sulfonyl]-3,8-diazabicyclo[3.2.1]oct-3-yl}(1H-1,2,3-triazol-5-yl)methanone], 29.8 nM.
For the compound `O=C(c1cnn[nH]1)N1CC2CCC(C1)N2S(=O)(=O)c1ccc(Cl)c(Cl)c1` [Example 48, {8-[(3,4-dichlorophenyl)sulfonyl]-3,8-diazabicyclo[3.2.1]oct-3-yl}(1H-1,2,3-triazol-5-yl)methanone], the IC50 was 1.1 nM.
The figure for `CCc1ccc(S(=O)(=O)N2C3CCC2CN(C(=O)c2cnn[nH]2)C3)cc1` [Example 49, {8-[(4-ethylphenyl)sulfonyl]-3,8-diazabicyclo[3.2.1]oct-3-yl}(1H-1,2,3-triazol-5-yl)methanone] is 1.2 nM; for `O=C(c1cnn[nH]1)N1CC2CCC(C1)N2S(=O)(=O)c1ccc(F)cc1Cl` [Example 50, {8-[(2-chloro-4-fluorophenyl)sulfonyl]-3,8-diazabicyclo[3.2.1]oct-3-yl}(1H-1,2,3-triazol-5-yl)methanone] it is 0.9 nM; for `Cc1cccc(Cl)c1S(=O)(=O)N1C2CCC1CN(C(=O)c1cnn[nH]1)C2` [Example 51, {8-[(2-chloro-6-methylphenyl)sulfonyl]-3,8-diazabicyclo[3.2.1]oct-3-yl}(1H-1,2,3-triazol-5-yl)methanone] it is 0.8 nM.
As for `O=C(c1cnn[nH]1)N1CC2CC[C@@H](C1)N2S(=O)(=O)c1cccc(Cl)c1Cl` [Example 53, {(1S)-8-[(2,3-dichlorophenyl)sulfonyl]-3,8-diazabicyclo[3.2.1]oct-3-yl}(1H-1,2,3-triazol-5-yl)methanone], the IC50 was determined as 0.8 nM.
The figure for `O=C(c1cnn[nH]1)N1CC2CCC(C1)N2S(=O)(=O)c1cccc2nsnc12` [Example 54, [8-(2,1,3-benzothiadiazol-4-ylsulfonyl)-3,8-diazabicyclo[3.2.1]oct-3-yl](1H-1,2,3-triazol-5-yl)methanone] is 1.2 nM; for `O=C(c1cnn[nH]1)N1CC2CCC(C1)N2S(=O)(=O)c1cccc2nonc12` [Example 55, [8-(2,1,3-benzoxadiazol-4-ylsulfonyl)-3,8-diazabicyclo[3.2.1]oct-3-yl](1H-1,2,3-triazol-5-yl)methanone] it is 2.7 nM; for `O=C(c1cnn[nH]1)N1CC2CCC(C1)N2S(=O)(=O)c1c(Cl)cc(Cl)cc1Cl` [Example 56, 1H-1,2,3-triazol-5-yl{8-[(2,4,6-trichlorophenyl)sulfonyl]-3,8-diazabicyclo[3.2.1]oct-3-yl}methanone] it is 1.4 nM.
As for `COc1ccc(Cl)cc1S(=O)(=O)N1C2CCC1CN(C(=O)c1cnn[nH]1)C2` [Example 57, {8-[(5-chloro-2-methoxyphenyl)sulfonyl]-3,8-diazabicyclo[3.2.1]oct-3-yl}(1H-1,2,3-triazol-5-yl)methanone], the figure is 9.7 nM; as for `O=C(c1cnn[nH]1)N1CC2CCC(C1)N2S(=O)(=O)c1ccc2nsnc2c1` [Example 58, [8-(2,1,3-benzothiadiazol-5-ylsulfonyl)-3,8-diazabicyclo[3.2.1]oct-3-yl](1H-1,2,3-triazol-5-yl)methanone], 1.2 nM; as for `O=C(c1cnn[nH]1)N1CC2CCC(C1)N2S(=O)(=O)c1ccc(F)c(F)c1F` [Example 59, 1H-1,2,3-triazol-5-yl{8-[(2,3,4-trifluorophenyl)sulfonyl]-3,8-diazabicyclo[3.2.1]oct-3-yl}methanone], 2.2 nM.
On to `N#Cc1cc(S(=O)(=O)N2C3CCC2CN(C(=O)c2cnn[nH]2)C3)ccc1F` [Example 60, 2-fluoro-5-{[3-(1H-1,2,3-triazol-5-ylcarbonyl)-3,8-diazabicyclo[3.2.1]oct-8-yl]sulfonyl}benzonitrile], for which the IC50 stood at 28.4 nM.

As a reminder, the IC50 is the midpoint of a concentration-inhibition curve.

The record behind these values is patent US10167293B2, “[8-(phenylsulfonyl)-3,8-diazabicyclo[3.2.1]oct-3-yl](1H-1,2,3-triazol-4-yl)methanones” (BAYER PHARMA AKTIENGESELLSCHAFT, priority 2016, dated 2019).
